Test [1] has as its system HCT-116 colon carcinoma. The test is described as follows: Cell proliferation inhibition assay (14C-thymidine incorporation), HCT116. In kind it is cell-based. As to conditions: Homo sapiens. The text has this:
(§1) The ability of a test compound to inhibit unregulated cell proliferation may be determined by measuring incorporation of ^14C-labelled thymidine into newly synthesized DNA within cell lines derived from carcinomas originating from several tissues. Accordingly, the effect of a test compound on proliferation of cells with a variety of phenotypes may be determined.
(§2) Carcinoma cell lines used include the HeLa cervical adenocarcinoma from the American Type Culture Collection (ATCC Cat. #CCL2), A375 malignant melanoma (ATCC Cat. #CRL-1619) and HCT-116 colon carcinoma (ATCC Cat. #CCL-247).
(§3) The carcinoma cells are trypsinized and counted. The cells (3000-8000 count) are added to each well of a 96-well CytoStar tissue culture treated scintillating microplate (Amersham #RPNQO160) in complete medium (100 μL) and the plate is then incubated in complete medium for 24 hrs at 37° C. in an inert atmosphere containing 5% CO2.
(§4) Test compound (1 μL) in 100% DMSO is added to the plate test-wells with DMSO only added to control-wells. The plate is incubated in complete medium for a second 24 hr period at 37° C. in an atmosphere containing 5% CO2.
(§5) An aliquot of a solution of Methyl ^14C-thymidine (56 mC/mmol) (NEN #NEC568 or Amersham #CFA532) and complete medium (20 uL to provide 0.2 μCi/well) is then added to each well and the plate is incubated for a third 24 hr period at 37° C. in an atmosphere containing 5% CO2.
(§6) The plate contents are then discarded, the plate is washed twice with PBS (200 μL) and then PBS (200 μL) is added to each well. The plate is sealed and the degree of methyl ^14C-thymidine incorporation is quantified on a Packard Top Count.
(§7) For a series of test concentrations, the IC50 was derived by graphing percent inhibition against the log of the concentrations tested for a given compound with results shown in Table 2.
On the technique in general: Dividing cells build labelled thymidine or BrdU into new DNA.

Test [2] relates to A375 malignant melanoma. The test can be described thus: Cell proliferation inhibition assay (14C-thymidine incorporation), A375. In kind it is cell-based. As to conditions: Homo sapiens, A-375.
Description: as §1, §2, §3, §4, §5, §6, §7

Test [3] addresses T1, VEGF-R2 kinase domain (Rattus norvegicus, UniProt O08775).
T1 construct: polyhistidine (N)
The test can be described thus: VEGF-R2 screening assay (33P-ATP FlashPlate kinase assay). In kind it is biochemical. As to conditions: for IC50: 10 μM ATP; for inhibition at 100 µM: single test concentration 100 μM. On the procedure:
(§8) 70 μL of the kinase reaction mixture was dispensed into the well of a streptavidin coated FlashPlate™ (Cat. # SMP103, NEN, Boston, Mass.).
(§9) Test compound stock in 100% DMSO (1 μL) was added to the wells resulting in a final concentration of 1% DMSO in the reaction with a 100 μL final reaction volume. Each enzyme was diluted in 50 mM Tris-HCl pH=8.0, 0.1% BSA and 30 μL was added to each well to initiate the reaction. The reaction was incubated for one hour at 30° C. At the end of the 1 hr incubation, the reaction was terminated by aspirating the mixture from the plate and washing the wells twice with PBS containing 100 mM EDTA. The biotinylated peptide substrate became immobilized on the Flashplate™ and the incorporation of ^33P-γ-ATP was measured by reading the plate on a scintillation counter. Inhibition of the enzymatic activity was measured by observing a reduced amount of ^33P-γ-ATP incorporated into the immobilized peptide.
The assay used 150 ng of the N-terminal biotinylated peptide biotin-[…]-amide (VEGF-R2) per well.
(§10) A maximum and minimum signal for the assay was determined on each plate. The percent inhibition of a test compound was calculated according to the formula: [formula]

Test [4] concerns the target T2, Aurora-A (Mus musculus, UniProt P97477).
T2 construct: followed by the full length protein encoding the murine Aurora-A; polyhistidine (N); made in house; host or cells: Sf9 insect cells
T2 sequence (P97477 1-395): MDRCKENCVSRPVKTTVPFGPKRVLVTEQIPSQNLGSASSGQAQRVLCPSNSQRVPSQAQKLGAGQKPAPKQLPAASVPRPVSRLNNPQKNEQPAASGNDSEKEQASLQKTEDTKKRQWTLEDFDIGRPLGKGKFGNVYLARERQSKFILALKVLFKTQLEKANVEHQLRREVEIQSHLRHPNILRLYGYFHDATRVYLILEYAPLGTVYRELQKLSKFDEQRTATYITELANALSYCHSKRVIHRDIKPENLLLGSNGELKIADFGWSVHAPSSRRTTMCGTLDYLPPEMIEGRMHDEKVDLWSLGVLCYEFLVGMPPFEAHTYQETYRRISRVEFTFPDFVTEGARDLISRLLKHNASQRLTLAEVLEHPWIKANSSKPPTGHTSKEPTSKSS
The test is described as follows: Aurora-A screening assay (33P-ATP FlashPlate kinase assay). In kind it is biochemical, murine. As to conditions: for IC50: 10 μM ATP; for inhibition at 100 µM: single test concentration 100 μM. On the procedure: as §8, §9
Aurora-A is a fusion protein containing a polyhistidine tag at the N terminus followed by the full length protein encoding the murine Aurora-A (Accession number GB BC014711) expressed and purified from sf9 insect cells. The assay used 400 ng of the N-terminal biotinylated peptide biotin-[…]-amide (Aurora-A) per well.
as §10

In test [5] the test system is HeLa cervical adenocarcinoma. The test is described as follows: Cell proliferation inhibition assay (14C-thymidine incorporation), HeLa. In kind it is cell-based. The following applies: Homo sapiens.
Description: as §1, §2, §3, §4, §5, §6, §7

Where [6] appears, read: read-out: VEGF-R2 percent inhibition.
The mark [7] stands for this setting: read-out: Aurora-A percent inhibition.

SMILES strings stand for the structures.

One may read the IC50 as the concentration needed to halve the response being measured. Read a high IC50 as lower potency. For orientation: inhibition means the change of the read-out against control, counted positive when it falls.

T1 sequence (O08775 786-1343): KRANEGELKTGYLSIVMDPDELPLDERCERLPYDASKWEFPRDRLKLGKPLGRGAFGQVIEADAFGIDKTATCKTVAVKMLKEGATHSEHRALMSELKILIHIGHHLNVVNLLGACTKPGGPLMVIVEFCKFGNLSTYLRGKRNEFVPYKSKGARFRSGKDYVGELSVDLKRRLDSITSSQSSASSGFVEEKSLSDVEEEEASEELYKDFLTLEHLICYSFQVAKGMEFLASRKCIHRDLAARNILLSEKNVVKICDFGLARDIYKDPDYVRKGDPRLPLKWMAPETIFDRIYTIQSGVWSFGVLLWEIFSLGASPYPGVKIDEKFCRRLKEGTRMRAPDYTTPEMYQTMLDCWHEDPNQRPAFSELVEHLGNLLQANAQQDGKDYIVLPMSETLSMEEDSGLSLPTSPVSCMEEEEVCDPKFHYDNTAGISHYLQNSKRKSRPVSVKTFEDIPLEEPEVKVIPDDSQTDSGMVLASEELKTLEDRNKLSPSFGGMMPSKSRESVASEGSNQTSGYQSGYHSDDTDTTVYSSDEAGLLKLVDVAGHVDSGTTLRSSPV

Take `COc1ccc2c(c1)cc(-c1cccc3c1C(=O)NC3=O)n2C(=O)OC(C)(C)C` [Cpd 21, 2-(1,3-dioxo-2,3-dihydro-1H-isoindol-4-yl)-5-methoxy-indole-1-carboxylic acid tert-butyl ester]: the IC50 in test [1] is greater than 100 µM; in test [2] it was greater than 100 µM; in test [3] it was 1520 nM; in test [4], 270 nM; in test [5] it was 43 µM.

As to `COc1ccc2c(c1)cc(-c1ccc([N+](=O)[O-])c3c1C(=O)NC3)n2C(=O)OC(C)(C)C` [Cpd 15, 5-methoxy-2-(7-nitro-3-oxo-2,3-dihydro-1H-isoindol-4-yl)-indole-1-carboxylic acid tert-butyl ester], the half-inhibitory concentration (IC50) in test [3] stood at 1520 nM; in test [4] it was 270 nM.

`O=C1NCc2cccc(-c3cc4cc(OCc5ccccc5)ccc4[nH]3)c21` [Cpd 19, 7-(5-benzyloxy-1H-indol-2-yl)-2,3-dihydro-isoindol-1-one]: the values for the half-maximal inhibitory concentration (IC50) in test [3] and in test [4] were 11300 nM and 21200 nM, respectively.

Consider `COc1ccc2[nH]c(-c3ccc(N)c4c3C(=O)NC4)cc2c1` [Cpd 17, 4-amino-7-(5-methoxy-1H-indol-2-yl)-2,3-dihydro-isoindol-1-one], for which the results for the IC50 in test [3] and in test [4] were 53.2 nM and 432 nM, respectively.

On to `CC(C)(C)OC(=O)n1c(-c2cccc3c2C(=O)NC3)cc2cc(OCCN3CCOCC3)ccc21` [Cpd 30, 5-(2-morpholin-4-yl-ethoxy)-2-(3-oxo-2,3-dihydro-1H-isoindol-4-yl)-indole-1-carboxylic acid tert-butyl ester], for which the half-inhibitory concentration (IC50) stood at 17 µM in test [1], 5.31 µM in test [2] and 20.3 µM in test [5]. The inhibition at 100 µM in test [3] (setting [6]) was 65%; in test [4] (setting [7]), 57%.

As for `COc1ccc2[nH]c(-c3cccc4c3C(=O)NC4=O)cc2c1` [Cpd 22, 4-(5-methoxy-1H-indol-2-yl)-isoindole-1,3-dione], the inhibition at 0.1 µM in test [3] (single test concentration 0.1 μM, read-out: VEGF-R2 percent inhibition) was 35%; in test [4] (single test concentration 0.1 μM, read-out: Aurora-A percent inhibition), 30%.

Consider `CC(C)(C)OC(=O)n1cccc1-c1cccc2c1C(=O)NC2` [Cpd 23, 2-(3-oxo-2,3-dihydro-1H-isoindol-4-yl)-pyrrole-1-carboxylic acid tert-butyl ester], for which the inhibition at 100 µM in test [3] (setting [6]) came to 46%; in test [4] (setting [7]), 25%.

Take `O=C1NCc2cccc(-c3cc4cc(OCCCN5CCCCC5)ccc4[nH]3)c21` [Cpd 9, 7-[5-(3-piperidin-1-yl-propoxy)-1H-indol-2-yl]-2,3-dihydro-isoindol-1-one]: the half-maximal inhibitory concentration (IC50) in test [1] came to 7.77 µM; in test [2], 4.03 µM; in test [3], 65 nM; in test [4], 179 nM; in test [5] it was 6.06 µM.

In the case of `CCN1CCN(CCCOc2ccc3[nH]c(-c4cccc5c4C(=O)NC5)cc3c2)CC1` [Cpd 1, 7-{5-[3-(4-ethyl-piperazin-1-yl)-propoxy]-1H-indol-2-yl}-2,3-dihydro-isoindol-1-one], the IC50 was determined as 3.85 µM in test [1]; 3.9 µM in test [2]; 14 nM in test [3]; 44 nM in test [4]; 5.31 µM in test [5].

Consider `COc1cc2c(c(-c3cc4cc(OC)ccc4[nH]3)c1)C(=O)NC2` [Cpd 6, 5-methoxy-7-(5-methoxy-1H-indol-2-yl)-2,3-dihydro-isoindol-1-one], for which the concentration for half-maximal inhibition (IC50) was determined as 4.28 µM in test [1]; 3.02 µM in test [2]; 103 nM in test [3]; 100 nM in test [4]; 5.08 µM in test [5].

As to `O=C1NCc2cccc(-c3cc4cc(OCCCO)ccc4[nH]3)c21` [Cpd 5, 7-[5-(3-hydroxy-propoxy)-1H-indol-2-yl]-2,3-dihydro-isoindol-1-one], the half-maximal inhibitory concentration (IC50) worked out at 6.47 µM in test [1]; 4.4 µM in test [2]; 30 nM in test [3]; 100 nM in test [4]; 15 µM in test [5].

As for `COc1ccc2c(c1)cc(-c1cccc3c1C(=O)NC3)n2C(=O)OC(C)(C)C` [Cpd 27, 5-methoxy-2-(3-oxo-2,3-dihydro-1H-isoindol-4-yl)-indole-1-carboxylic acid tert-butyl ester], the half-inhibitory concentration (IC50) in test [1] is greater than 10 µM; in test [2], greater than 10 µM; in test [5], 55.9 µM. For the same compound, in test [3] (setting [6]), the inhibition at 100 µM is 57%. In addition, the inhibition at 10 µM in test [4] (single test concentration 10 μM, read-out: Aurora-A percent inhibition) worked out at 48%.

With `COc1cc2c(c(-c3cc4cc(OC)ccc4n3C(=O)OC(C)(C)C)c1)C(=O)NC2` [Cpd 31, 5-Methoxy-2-(6-methoxy-3-oxo-2,3-dihydro-1H-isoindol-4-yl)-indole-1-carboxylic acid tert-butyl ester], the figures for the IC50 in test [1], in test [2] and in test [5] were 39.5 µM, 39.6 µM and 44.3 µM, respectively. Further, the inhibition at 100 µM came out at 17% in test [3] (setting [6]) and 40% in test [4] (setting [7]).

As to `CC(C)(C)OC(=O)n1c(-c2cccc3c2C(=O)NC3)cc2cc(OCCN3CCCCC3)ccc21` [Cpd 29, 2-(3-oxo-2,3-dihydro-1H-isoindol-4-yl)-5-(2-piperidin-1-yl-ethoxy)-indole-1-carboxylic acid tert-butyl ester], the half-maximal inhibitory concentration (IC50) in test [1] is greater than 1 µM; in test [2], 4.14 µM; in test [5], 14.6 µM. The inhibition at 100 µM in test [3] (setting [6]) was found to be 63%; in test [4] (setting [7]), 58%.

Regarding `COc1ccc2[nH]c(-c3cccc4c3C(=O)NC4)nc2c1` [Cpd 11, 7-(5-methoxy-1H-benzoimidazol-2-yl)-2,3-dihydro-isoindol-1-one], the IC50 in test [1] was greater than 10 µM; in test [2], greater than 10 µM; in test [3] it was 142 nM; in test [4], 205 nM; in test [5] it was greater than 10 µM.

As for `CC(C)(C)OC(=O)n1c(-c2cccc3c2C(=O)NC3)cc2ccccc21` [Cpd 26, 2-(3-oxo-2,3-dihydro-1H-isoindol-4-yl)-indole-1-carboxylic acid tert-butyl ester], the inhibition at 100 µM in test [3] (setting [6]) turned out to be 34%; in test [4] (setting [7]) it was 61%.

Consider `O=C1NCc2cccc(-c3c[nH]c4ccccc34)c21` [Cpd 20, 7-(1H-Indol-3-yl)-2,3-dihydro-isoindol-1-one], for which the values for the inhibition at 100 µM in test [3] (setting [6]) and in test [4] (setting [7]) were 50% and 60%, respectively.

`COc1ccc2[nH]c(-c3ccc(NC(C)=O)c4c3C(=O)NC4)cc2c1` [Cpd 18, N-[7-(5-methoxy-1H-indol-2-yl)-1-oxo-2,3-dihydro-1H-isoindol-4-yl]-acetamide] yielded an IC50 in test [3] greater than 100000 nM. The inhibition at 100 µM in test [4] (setting [7]) came out at 64%.

On to `CN1Cc2cccc(-c3ccc[nH]3)c2C1=O` [Cpd 25, 2-methyl-7-(1H-pyrrol-2-yl)-2,3-dihydro-isoindol-1-one], for which the inhibition at 100 µM in test [3] (setting [6]) was found to be 37%. In test [4], this compound came in with an IC50 greater than 100000 nM.
